Experimental data taken from patent US8188221B2, “Peptide homing to brain tumors” (Burnham Institute for Medical Research, priority 2008, dated 2012).
Ends that are not written are not given here.

Tests used:
Type in all cases: in vivo, mice
[1] = test system: intracranial HIF-1alfa KO (HIFko) tumor; test: Homing of phage displaying CGLSGLGVA to intracranial islet tumors (phage titration of organs); conditions: peptide displayed on phage, 10^9 pfu into tail vein, 15 min circulation, perfusion, FIG. 1
Protocol: CGLSGLGVA or a control phage (10^9 pfu=plaque forming unit) were injected into the tail vein of intracranial HIF-1alfa KO (HIFko) tumor-bearing mice. After 15 min of circulation the mice were perfused through the heart with saline to remove unbound phage followed by excision of tumor containing brain, normal brain, liver, kidney and lungs. The number of phage homed to those organs were determined by titration.

[2] = test system: intracranial HIFko islet tumors; test: Homing of fluorescein-conjugated peptide to intracranial HIFko islet tumors (histology, anti-FITC); conditions: 10 μg into tail vein, 60 min circulation
Protocol: Fluorescein-conjugated CGLSGLGVA peptide (10 μg) was injected into tail vein of HIFko tumor-bearing mice. After 60 min of circulation tumor-containing brain was excised and prepared for histological analysis. Peptide was visualized by using an antibody against fluorescein (rabbit anti-FITC, Zymed Laboratories). […] Presence of the tumor cells was confirmed by staining for the SV40 T-antigen specific for tumor cells from a subsequent section (green in FIG. 2B). FIGS. 2C and 2D show the same microscopic field as 2A and 2B. Nuclei were visualized by DAPI staining (blue).
(§1) Fluorescein-conjugated CGLSGLGVA peptide (10 μg) was injected into tail vein of murine HIFko or human U87MG intracranial xenograft bearing mice. After 60 min of circulation tumor-containing brain was excised and prepared for histological analysis. Peptide was visualized by using an antibody against fluorescein (rabbit anti-FITC, Zymed Laboratories). […] Nuclei were visualized by DAPI staining (blue).

[3] = test system: VEGF overexpressing (VEGF+) tumor; test: Homing of fluorescein-conjugated peptide to intracranial VEGF-overexpressing tumors (histology); conditions: 10 μg into tail vein, 60 min circulation, FIG. 3A
Protocol: Fluorescein-conjugated CGLSGLGVA peptide (10 μg) was injected into the tail vein of VEGF overexpressing (VEGF+) tumor-bearing mice. After 60 min of circulation tumor was excised and prepared for histological analysis. Peptide was visualized by using an antibody against fluorescein (rabbit anti-FITC, Zymed Laboratories). FIG. 3A. […] 3B: Same microscopic field as in 3A. Nuclei were visualized by DAPI staining (blue).

[4] = test system: subcutaneous HIFko tumor; test: Homing of fluorescein-conjugated peptide to subcutaneous HIFko tumors (histology); conditions: 10 μg into tail vein, 60 min circulation, FIG. 4A
Protocol: Fluorescein-conjugated CGLSGLGVA peptide (10 μg) was injected into the tail vein of subcutaneous HIFko tumor-bearing mice. After 60 min of circulation tumor was excised and prepared for histological analysis. Peptide was visualized by using an antibody against FITC (rabbit anti-FITC, Zymed Laboratories). FIG. 4A. […] FIG. 4B. Same microscopic field as in FIG. 4A. Nuclei were visualized by DAPI staining (blue).

[5] = test system: human U87MG intracranial xenograft; test: Homing and localization of fluorescein-conjugated peptide in intracranial U87MG tumors (histology, PECAM-1 co-staining)
Protocol: as §1
Fluorescein-conjugated CGLSGLGVA peptide (10 μg) was injected into the tail vein of intracranial human U87MG tumor-bearing mice. After 60 min of circulation tumor-containing brain was excised and prepared for histological analysis. Peptide was visualized by using an antibody against fluorescein (rabbit anti-FITC, Zymed Laboratories). […] Magnification in FIG. 6A, 200×; FIG. 6B, 400×.

Substance | homing of phage to tumor containing brain versus normal brain, liver, kidney and lungs [1] | detection of peptide in tumor islets and surrounding normal brain ([2]; FIG. 2) | homing pattern of peptide in tumor ([2]; murine HIFko intracranial tumor, FIG. 5A) | detection of peptide in tumor tissue [3] | detection of peptide in tumor tissue [4] | homing to tumor ([5]; U87MG human glioblastoma xenografts, intravenous injection into the tail vein) | homing pattern of peptide in tumor ([5]; human U87MG intracranial xenograft, 10 μg into tail vein, 60 min circulation, FIG. 5B) | colocalization with endothelial cell marker PECAM-1 ([5]; intracranial U87MG tumor, 10 μg into tail vein, 60 min circulation, FIG. 6)
CGLSGLGVA [novel nine amino acid long tumor-homing peptide] | very specifically homes to the intracranial, early stage astrocytoma model (HIFko) | – | – | – | – | – | – | –
Fluorescein-conjugated CGLSGLGVA peptide: CGLSGLGVA peptide conjugated to fluorescein, detected with anti-FITC antibody (also: fluorescein conjugate) | – | detected only in the tumor islets and not in the surrounding normal brain tissue | detected diffusively in the whole tumor tissue | not detected in the tumor tissue | not detected in the tumor tissue | homes to the U87MG human glioblastoma xenografts | peptide distribution resembled that of blood vessels | did not colocalize with the blood vessel marker PECAM-1
